Laboratory results as given in patent US10959968B2, “Methods for treating c-Met-dependent cancers” (Board of Supervisors of Louisiana State University and …, priority 2016, dated 2021).

Columns and labels:
DU145 spheroids = assay: 3D spheroid growth, IncuCyte; format: cell-based, human; conditions: 10 micromolar, 72 hours
Method: FIG. 9B: DU145 cells were grown in 10% FBS DMEM. Cells were collected after trypsinization and resuspended in phenol-red free DMEM with 10% FBS. Cells were labeled with Cell-Tracker Red (Life Technologies) for 5 minutes. After labeling cells were washed with PBS and transfer into 96-well Corning 7007 ULA round bottom plates at 1,000 cells/well in 100 μl phenol-red free media with 10% FBS and 5% Matrigel. […] Spheroids were grown at 37° C. and 5% CO2 in IncuCyte ZOOM (Essen Bioscience). Images were acquired every 4 h for a period of 72 h post-treatment and software analysis was design to identify the red object in the well. The data were expressed as fold increase in spheroids size at the end of the treatment using the “average red object area in the well” as determined by the IncuCyte software analysis. FIG. 9C: Visually representative spheroids that are quantitated in FIG. 9B.
To determine the effectiveness of these compounds under 3D growth conditions which more accurately predict effectiveness of new drugs in humans, DU145 spheroids were formed and allowed to grow for 72 hours. Images were recorded every 4 hours using the Incucyte platform. […] Compounds 9 and 10, at 10 micromolar reduced spheroid growth by about 50 percent (not shown).

MDA-MB231 spheroids = assay: 3D spheroid growth, IncuCyte; format: cell-based, human; conditions: 10 micromolar, results not shown
Method: FIG. 9. (A). MDA-MB231 cells were grown in 10% FBS DMEM. Cells were collected after trypsinization and resuspended in phenol-red free DMEM with 10% FBS. Cells were labeled with CellTracker Red (Life Technologies) for 5 minutes. After labeling cells were washed with PBS and transfer into 96-well Corning 7007 ULA round bottom plates at 1,000 cells/well in 100 μl phenol-red free media with 10% FBS and 5% Matrigel. […] Spheroids were grown at 37° C. and 5% CO2 in IncuCyte ZOOM (Essen Bioscience). Images were acquired every 4 h for a period of 72 h post-treatment. The data were expressed as fold increase in spheroids size at the end of the treatment using the “average red object area in the well” as determined by the IncuCyte software analysis.
MDA-MB231 spheroids were all allowed to form and treated with compounds for up to 72 hours. Images were captured using the Incucyte platform.

[1] = test system: DU145 human prostate cancer cells (pMet, pAkt, pErk); assay: Western blot of HGF-induced signaling in prostate cancer cells; format: cell-based; conditions: 30 min pretreatment, 30 min HGF
Method: FIG. 4. A) Effect of HVS treatment on HGF-induced c-Met activation in human breast cancer cells using Western Blot analysis. Treatment with HVS caused a significant, dose-responsive inhibition of HGF-induced c-Met phosphorylation in MDA-MB-231, MCF-7, and BT-474 mammary tumor cells with no effect on total c-Met levels after treatment for 72 h, as compared to their respective vehicle-treated control groups. The visualization of β-tubulin was used as a loading control. (B) Effect of HVS on HGF-induced c-Met activation and its downstream mitogenic signaling in DU145 human prostate cancer cells, as compared to vehicle-treated control group, using Western Blot analysis. Cells were pre-treated for 30 minutes with either HVS at 0.1, 0.3, 1, and 5 μM or (−)-oleocanthal at 5, 10, and 20 μM doses in serum-free 0.4-media. 33 ng/mL HGF was then added for 30 minutes. Whole cell lysates were collected and assayed by Western Blot. The visualization of α-tubulin was used as a loading control. Representative Western Blots from each experiment are shown, N=3.
DU145 prostate tumor cells were pretreated for 30 minutes with the indicated compounds. Following pretreatment, cells were pulsed for thirty minutes with HGF, cell lysates were prepared and western blot analysis was performed to identify pMet, pAkt, pErk and tubulin.

SMILES | reduction of spheroid growth (DU145 spheroids) | effect on spheroid growth (MDA-MB231 spheroids) | pAkt signaling [1] | pMet induction [1] | HGF-induced (Met dependent) signaling [1]
COc1cc(CCOC(=O)/C=C/c2cc(OC)c(O)c(OC)c2)ccc1N [Compound 9, (E)-4-amino-3-methoxyphenethyl 3-(4-hydroxy-3,5-dimethoxyphenyl)-acrylate] | about 50% | effective | did attenuate | did not lower | –
COc1cc(/C=C/C(=O)OCCc2ccc(N)nc2)cc(OC)c1O [Compound 10, (E)-2-(6-aminopyridin-3-yl)ethyl 3-(4-hydroxy-3,5-dimethoxyphenyl)acrylate] | about 50% | effective | – | – | appeared to increase
